The target in the experiment is T1, G9a methyltransferase (Homo sapiens, UniProt Q96KQ7).
T1 sequence (Q96KQ7 1-1210): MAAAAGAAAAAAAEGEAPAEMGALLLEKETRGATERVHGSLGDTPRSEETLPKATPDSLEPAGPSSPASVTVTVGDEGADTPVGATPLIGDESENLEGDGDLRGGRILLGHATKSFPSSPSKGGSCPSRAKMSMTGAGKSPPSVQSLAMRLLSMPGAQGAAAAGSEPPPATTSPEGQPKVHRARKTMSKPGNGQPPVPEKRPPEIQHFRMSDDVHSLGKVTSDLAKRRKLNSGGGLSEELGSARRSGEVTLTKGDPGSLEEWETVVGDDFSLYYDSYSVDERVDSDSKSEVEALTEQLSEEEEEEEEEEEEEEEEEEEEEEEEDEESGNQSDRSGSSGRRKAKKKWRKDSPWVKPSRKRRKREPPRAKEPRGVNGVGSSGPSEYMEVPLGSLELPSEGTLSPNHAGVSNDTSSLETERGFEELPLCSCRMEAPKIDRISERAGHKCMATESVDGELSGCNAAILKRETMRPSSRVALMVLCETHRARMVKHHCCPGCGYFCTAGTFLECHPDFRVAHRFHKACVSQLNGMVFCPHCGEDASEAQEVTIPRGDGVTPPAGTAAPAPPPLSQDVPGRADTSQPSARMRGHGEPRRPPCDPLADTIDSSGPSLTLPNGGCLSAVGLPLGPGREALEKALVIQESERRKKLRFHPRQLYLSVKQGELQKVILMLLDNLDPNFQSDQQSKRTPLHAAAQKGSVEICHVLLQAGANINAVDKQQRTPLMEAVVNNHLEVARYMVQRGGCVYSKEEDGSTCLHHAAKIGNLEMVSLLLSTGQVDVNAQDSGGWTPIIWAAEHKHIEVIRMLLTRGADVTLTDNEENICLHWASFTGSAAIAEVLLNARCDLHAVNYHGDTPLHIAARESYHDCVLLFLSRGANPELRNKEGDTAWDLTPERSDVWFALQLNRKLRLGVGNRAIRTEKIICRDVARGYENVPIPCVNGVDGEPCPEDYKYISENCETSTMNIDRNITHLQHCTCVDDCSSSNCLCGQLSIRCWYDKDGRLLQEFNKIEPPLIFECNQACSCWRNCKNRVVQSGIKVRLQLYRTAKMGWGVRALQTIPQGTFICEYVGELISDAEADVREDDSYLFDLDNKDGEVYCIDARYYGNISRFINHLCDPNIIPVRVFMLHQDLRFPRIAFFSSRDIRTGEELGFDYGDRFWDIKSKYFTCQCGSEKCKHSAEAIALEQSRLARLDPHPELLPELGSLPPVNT
The experiment is described as follows: G9a histone methyltransferase inhibitor dose response, coupled-enzyme AMP fluorescent immunodetection assay (FIG. 6). It counts as biochemical.

Structures are written as SMILES.

Experimental: In addition, inhibitor potencies were determined with G9a HMT.
HMT reactions were run for 60 minutes followed by addition of quench and detection reagents including the SAM-SAH coupling enzyme mixture and the Transcreener® AMP2/GMP2 Assay monoclonal antibody and tracer.

In turn, `CN1C(=O)[C@@]23C[C@]4([C@]56C[C@@]78SS[C@@](CO)(C(=O)N7[C@H]5Nc5ccccc56)N(C)C8=O)c5ccccc5N[C@@H]4N2C(=O)[C@]1(CO)SS3` [chaetocin] registered an IC50 of 770 µM.

The IC50 is the concentration needed to halve the response being measured. The low end stands for inhibition by little substance, the high end for a need for much substance.

The record behind these values is patent US20120244549A1, “Detection Method for Methyltransferase Enzymatic Activity” (BELLBROOK LABS, LLC, priority 2011, published 2012).
